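Where inhibition never reached the appropriate level, the endpoint shown equals the highest concentration tested. Otherwise, values were interpolated linearly from a five-concentration, 48-hour dose response in 96-well plates. GI50 = concentration required for 50% inhibition of growth. TGI: concentration producing complete growth inhibition.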
Key:
Experiment in all cases: NCI-60 cell line screen, 48 h
[1] = tested on: SF-268 CNS
[2] = tested on: OVCAR-3 ovarian
[3] = tested on: HT29 colon
[4] = tested on: SK-MEL-28 melanoma
[5] = tested on: CAKI-1 renal
[6] = tested on: A549 NSCLC
[7] = tested on: HS 578T breast
[8] = tested on: SF-295 CNS
[9] = tested on: SN12C renal
[10] = tested on: HOP-62 NSCLC
[11] = tested on: ACHN renal
[12] = tested on: M14 melanoma
[13] = tested on: HCT-116 colon
[14] = tested on: K-562 leukemia
[15] = tested on: UO-31 renal
[16] = tested on: MCF7 breast
[17] = tested on: DU-145 prostate
[18] = tested on: HL-60(TB) leukemia
[19] = tested on: RPMI-8226 leukemia
[20] = tested on: NCI-H522 lung
[21] = tested on: LOX IMVI melanoma
[22] = tested on: HOP-92 NSCLC
[23] = tested on: OVCAR-4 ovarian
[24] = tested on: U251 CNS
[25] = tested on: SK-MEL-5 melanoma
[26] = tested on: NCI-H460 lung
[27] = tested on: OVCAR-5 ovarian
[28] = tested on: UACC-257 melanoma
[29] = tested on: T-47D breast
[30] = tested on: KM12 colon
[31] = tested on: MDA-MB-231 breast
[32] = tested on: MDA-MB-435
[33] = tested on: SW-620 colon
[34] = tested on: SF-539 CNS
[35] = tested on: NCI/ADR-RES ovarian
[36] = tested on: 786-0 renal
[37] = tested on: SR leukemia
[38] = tested on: SNB-19 CNS
[39] = tested on: SNB-75 CNS
[40] = tested on: MALME-3M melanoma
[41] = tested on: RXF 393 renal
[42] = tested on: PC-3 prostate
[43] = tested on: OVCAR-8 ovarian
[44] = tested on: EKVX NSCLC
[45] = tested on: NCI-H226 lung
[46] = tested on: MOLT-4 leukemia
[47] = tested on: UACC-62 melanoma
[48] = tested on: HCC-2998 colon
[49] = tested on: NCI-H23 lung
[50] = tested on: CCRF-CEM leukemia
[51] = tested on: IGROV1 ovarian
[52] = tested on: SK-MEL-2 melanoma
[53] = tested on: TK-10 renal
[54] = tested on: HCT-15 colon
[55] = tested on: BT-549 breast

Molecule `C[C@H](CCOc1cccc(CC(=O)O)c1)N(Cc1cccc(C(F)(F)F)c1Cl)CC(c1ccccc1)c1ccccc1` has a GI50 [1] of 5.28 µM, a TGI [1] of 20.3 µM and a GI50 [2] of 4.77 µM. For the same molecule, the TGI [2] was 15.9 µM, the GI50 [3] was 4.43 µM and the TGI [3] was 22.9 µM. The GI50 [4] was 7.3 µM, the TGI [4] was 20.1 µM and the GI50 [5] was 5.79 µM. It also gave a TGI [5] of 18.2 µM, a GI50 [6] of 3.94 µM and a TGI [6] of 18.9 µM. For the same molecule, the GI50 [7] was 3.79 µM, the TGI [7] was 20.7 µM and the GI50 [8] was 4.44 µM. It also gave a TGI [8] of 18.6 µM, a GI50 [9] of 5.33 µM and a TGI [9] of 18.7 µM. It also gave a GI50 [10] of 6.26 µM, a TGI [10] of 26.4 µM and a GI50 [11] of 5.11 µM. The TGI [11] was 17 µM, the GI50 [12] was 7.23 µM and the TGI [12] was 24.2 µM. For the same molecule, the GI50 [13] was 3.68 µM, the TGI [13] was 13.6 µM and the GI50 [14] was 4.9 µM. It also gave a TGI [14] of 52.9 µM, a GI50 [15] of 2.36 µM and a TGI [15] of 14.7 µM. For the same molecule, the GI50 [16] was 3.53 µM, the TGI [16] was 17.9 µM and the GI50 [17] was 7.89 µM. For the same molecule, the TGI [17] was 20.4 µM, the GI50 [18] was 5.58 µM and the TGI [18] was 24.6 µM. It also gave a GI50 [19] of 3.48 µM, a TGI [19] of 22.1 µM and a GI50 [20] of 4.51 µM. The TGI [20] was 22.3 µM, the GI50 [21] was 5.13 µM and the TGI [21] was 18.5 µM. It also gave a GI50 [22] of 3.21 µM, a TGI [22] of 16.5 µM and a GI50 [23] of 5.26 µM. For the same molecule, the TGI [23] was 21.9 µM, the GI50 [24] was 4.1 µM and the TGI [24] was 19.3 µM. For the same molecule, the GI50 [25] was 3.95 µM, the TGI [25] was 14.6 µM and the GI50 [26] was 3.9 µM. The TGI [26] was 13.6 µM, the GI50 [27] was 13.4 µM and the TGI [27] was 28.1 µM. The GI50 [28] was 10.2 µM, the TGI [28] was 25.2 µM and the GI50 [29] was 4.47 µM. It also gave a TGI [29] of 33.6 µM, a GI50 [30] of 4.1 µM and a TGI [30] of 15.1 µM. It also gave a GI50 [31] of 10.5 µM, a TGI [31] of 25.1 µM and a GI50 [32] of 7.02 µM. The TGI [32] was 20.2 µM, the GI50 [33] was 5.28 µM and the TGI [33] was 20.7 µM. For the same molecule, the GI50 [34] was 6.14 µM, the TGI [34] was 20.4 µM and the GI50 [35] was 6.97 µM. It also gave a TGI [35] of 21.3 µM, a GI50 [36] of 5.54 µM and a TGI [36] of 19.4 µM. The GI50 [37] was 5.51 µM, the TGI [37] was 51.6 µM and the GI50 [38] was 6.25 µM. It also gave a TGI [38] of 19.8 µM, a GI50 [39] of 9.83 µM and a TGI [39] of 22 µM. For the same molecule, the GI50 [40] was 7.39 µM, the TGI [40] was 21.7 µM and the GI50 [41] was 4.18 µM. It also gave a TGI [41] of 16.2 µM, a GI50 [42] of 4.64 µM and a TGI [42] of 17.4 µM. For the same molecule, the GI50 [43] was 5.83 µM, the TGI [43] was 25.6 µM and the GI50 [44] was 4.04 µM. For the same molecule, the TGI [44] was 19.1 µM, the GI50 [45] was 4.49 µM and the TGI [45] was 21.5 µM. It also gave a GI50 [46] of 4.95 µM, a TGI [46] of 23.1 µM and a GI50 [47] of 2.72 µM. The TGI [47] was 8.44 µM, the GI50 [48] was 5.15 µM and the TGI [48] was 18 µM. It also gave a GI50 [49] of 4.5 µM, a TGI [49] of 19.2 µM and a GI50 [50] of 3.69 µM. The TGI [50] was 20.1 µM, the GI50 [51] was 5.77 µM and the TGI [51] was 19.4 µM. For the same molecule, the GI50 [52] was 5.84 µM, the TGI [52] was 28.2 µM and the GI50 [53] was 10.3 µM. For the same molecule, the TGI [53] was 23.1 µM, the GI50 [54] was 3.25 µM and the TGI [54] was 12.3 µM. The GI50 [55] was 5.39 µM and the TGI [55] was 20 µM.
